# According to PubChem BioAssay AID200 (DTP/NCI, 2004):
# Where “and” joins values, the source holds several entries; their conditions need not be identical. Equal entries are not always repeated. Inconclusive results and toxic doses are left out. Where a SMILES comes first, the peptide text is derived from it. The star is where a group is joined. Cbz = O=C(OCc1ccccc1)*; Bn = c1ccc(C*)cc1
# Test system: B6C3F1 mice, B16 melanoma ip, median survival T/C
# Test: NCI In Vivo Anticancer Drug Screen. Data for tumor model B16 Melanoma (intraperitoneal) in B6C3F1 mice
# Conditions: endpoint: median survival time, higher = longer survival
# Method in brief: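 Values are T/C ratios: the measurement in treated animals divided by that in vehicle-treated controls, using survival or tumor size in mice carrying transplantable tumors.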
# [1] = dose: 3.12 mg/kg/injection, schedule: Q01DX009 (ip), vehicle: saline
# [2] = dose: 6.25 mg/kg/injection, schedule: Q01DX009 (ip), vehicle: saline
# [3] = dose: 100.0 mg/kg/injection, schedule: Q01DX009 (ip), vehicle: saline with Tween-80
# [4] = dose: 200.0 mg/kg/injection, schedule: Q01DX009 (ip), vehicle: saline with Tween-80
# [5] = dose: 6.25 mg/kg/injection, schedule: Q01DX009 (ip), vehicle: saline with Tween-80
# [6] = dose: 12.5 mg/kg/injection, schedule: Q01DX009 (ip), vehicle: saline with Tween-80
# [7] = dose: 25.0 mg/kg/injection, schedule: Q01DX009 (ip), vehicle: saline with Tween-80
# [8] = dose: 50.0 mg/kg/injection, schedule: Q01DX009 (ip), vehicle: saline with Tween-80
# [9] = dose: 400.0 mg/kg/injection, schedule: Q01DX009 (ip), vehicle: Klucel (hydroxypropylcellulose) (HPC)
# [10] = dose: 12.5 mg/kg/injection, schedule: Q01DX009 (ip), vehicle: saline
# [11] = dose: 25.0 mg/kg/injection, schedule: Q01DX009 (ip), vehicle: saline
# [12] = dose: 50.0 mg/kg/injection, schedule: Q01DX009 (ip), vehicle: saline
# [13] = dose: 25.0 mg/kg/injection, schedule: Q01DX009 (ip), vehicle: Klucel (hydroxypropylcellulose) (HPC)
# [14] = dose: 50.0 mg/kg/injection, schedule: Q01DX009 (ip), vehicle: Klucel (hydroxypropylcellulose) (HPC)
# [15] = dose: 100.0 mg/kg/injection, schedule: Q01DX009 (ip), vehicle: Klucel (hydroxypropylcellulose) (HPC)
compound,measurement,setting,value
CCCC[C@H]1C(=O)O[C@H](C)[C@H](NC(=O)c2cccc(NC=O)c2O)C(=O)O[C@@H](C)[C@@H]1OC(=O)CC(C)C,T/C,"dose: 0.12 mg/kg/injection, schedule: Q01DX009 (ip), vehicle: Klucel (hydroxypropylcellulose) (HPC)",96 % of control
same,T/C,"dose: 0.25 mg/kg/injection, schedule: Q01DX009 (ip), vehicle: Klucel (hydroxypropylcellulose) (HPC)",96 % of control
same,T/C,"dose: 0.5 mg/kg/injection, schedule: Q01DX009 (ip), vehicle: Klucel (hydroxypropylcellulose) (HPC)",91 % of control and 98 % of control
CCN(CC)CC[n+]1ccc2c(C)c3[nH]c4ccc(O)cc4c3c(C)c2c1,T/C,[1],175 % of control
same,T/C,[2],151 % of control and 171 % of control
same,T/C,"dose: 6.25 mg/kg/injection, schedule: Q01DX009 (ip), vehicle: suspension in saline",151 % of control
O=C(NC(CSCc1ccccc1)C(=O)NC(Cc1ccc(O)cc1)C(=O)O)OCc1ccccc1 (configuration not stated) (Cbz-Cys(Bn)-Tyr-OH; configuration not given here),T/C,[3],90 % of control
same,T/C,[4],101 % of control
same,T/C,"dose: 400.0 mg/kg/injection, schedule: Q01DX009 (ip), vehicle: saline with Tween-80",87 % of control
Nc1n[n+](-c2ccccc2)no1,T/C,"dose: 3.12 mg/kg/injection, schedule: Q01DX009 (ip), vehicle: water",98 % of control
same,T/C,"dose: 6.25 mg/kg/injection, schedule: Q01DX009 (ip), vehicle: water",107 % of control
same,T/C,"dose: 12.5 mg/kg/injection, schedule: Q01DX009 (ip), vehicle: water",118 % of control
CNC[C@@H](O)c1ccc(O)c(O)c1,T/C,"dose: 0.75 mg/kg/injection, schedule: Q01DX009 (ip), vehicle: suspension in saline",114 % of control
same,T/C,"dose: 1.5 mg/kg/injection, schedule: Q01DX009 (ip), vehicle: suspension in saline",115 % of control
same,T/C,"dose: 3.0 mg/kg/injection, schedule: Q01DX009 (ip), vehicle: suspension in saline",99 % of control
COc1cc2cc(c1Cl)N(C)C(=O)CC(OC(=O)C(C)NC(=O)C(C)C)C1(C)OC1C(C)C1CC(O)(NC(=O)O1)C(OC)/C=C/C=C(C)C2OC (configuration not stated),T/C,"dose: 4.0 micrograms/kg/injection, schedule: Q01DX009 (ip), vehicle: distilled water + alcohol",102 % of control
same,T/C,"dose: 8.0 micrograms/kg/injection, schedule: Q01DX009 (ip), vehicle: distilled water + alcohol",114 % of control
CCCCCCCCCCCCCCC/C([O-])=N/[N+](C)(C)CC(C)O (configuration not stated),T/C,"dose: 25.0 mg/kg/injection, schedule: Q01DX001 (ip), vehicle: saline with Tween-80",105 % of control
same,T/C,"dose: 50.0 mg/kg/injection, schedule: Q01DX001 (ip), vehicle: saline with Tween-80",96 % of control
same,T/C,"dose: 50.0 mg/kg/injection, schedule: Q01DX001 (ip), vehicle: saline",105 % of control
same,T/C,"dose: 100.0 mg/kg/injection, schedule: Q01DX001 (ip), vehicle: saline with Tween-80",97 % of control
same,T/C,"dose: 200.0 mg/kg/injection, schedule: Q01DX001 (ip), vehicle: saline with Tween-80",104 % of control
same,T/C,"dose: 200.0 mg/kg/injection, schedule: Q01DX001 (ip), vehicle: saline",86 % of control
same,T/C,"dose: 400.0 mg/kg/injection, schedule: Q01DX001 (ip), vehicle: saline with Tween-80",100 % of control
CCCCNP1(NCCCC)=NP(NCCCC)(NCCCC)=NP(NCCCC)(NCCCC)=NP(NCCCC)(NCCCC)=N1,T/C,[5],111 % of control and 98 % of control
same,T/C,[6],115 % of control and 122 % of control and 101 % of control
same,T/C,[7],119 % of control and 104 % of control
same,T/C,[8],115 % of control
O=C(O)/C=C/C(=O)Nc1ccc(Cl)c(Cl)c1,T/C,"dose: 6.25 mg/kg/injection, schedule: Q01DX009 (ip), vehicle: Klucel (hydroxypropylcellulose) (HPC)",112 % of control
same,T/C,[9],110 % of control
COC(C(=O)C(O)C(C)O)C1CC2C=C3C=C(OC4CC(OC5CC(O)C(OC)C(C)O5)C(OC(C)=O)C(C)O4)C(C)C(=O)C3=C(O)C2=C(O)C1OC1CC(OC2CC(OC3CC(C)(O)C(O)C(C)O3)C(O)C(C)O2)C(O)C(C)O1 (configuration not stated),T/C,"dose: 0.25 mg/kg/injection, schedule: Q01DX009 (ip), vehicle: saline with Tween-80",109 % of control
same,T/C,"dose: 0.5 mg/kg/injection, schedule: Q01DX009 (ip), vehicle: saline with Tween-80",120 % of control
same,T/C,"dose: 1.0 mg/kg/injection, schedule: Q01DX009 (ip), vehicle: saline with Tween-80",120 % of control
same,T/C,"dose: 4.0 mg/kg/injection, schedule: Q01DX009 (ip), vehicle: saline with Tween-80",178 % of control
same,T/C,"dose: 8.0 mg/kg/injection, schedule: Q01DX009 (ip), vehicle: saline with Tween-80",178 % of control
O=C1c2c(O)cccc2-c2nn(CCNCCO)c3ccc(NCCNCCO)c1c23,T/C,"dose: 2.75 mg/kg/injection, schedule: Q01DX009 (ip), vehicle: water",250 % of control
same,T/C,"dose: 5.5 mg/kg/injection, schedule: Q01DX009 (ip), vehicle: water",158 % of control
COc1cc2c3c(cccc3c1)C(=O)N(CCN(C)C)C2=O,T/C,"dose: 5.0 mg/kg/injection, schedule: Q01DX009 (ip), vehicle: saline with Tween-80",119 % of control and 95 % of control
same,T/C,"dose: 10.0 mg/kg/injection, schedule: Q01DX009 (ip), vehicle: saline with Tween-80",115 % of control and 100 % of control
same,T/C,"dose: 20.0 mg/kg/injection, schedule: Q01DX009 (ip), vehicle: saline with Tween-80",110 % of control and 100 % of control and 105 % of control
same,T/C,"dose: 40.0 mg/kg/injection, schedule: Q01DX009 (ip), vehicle: saline with Tween-80",109 % of control and 121 % of control and 104 % of control
same,T/C,"dose: 80.0 mg/kg/injection, schedule: Q01DX009 (ip), vehicle: saline with Tween-80",107 % of control
CCCC(=O)O,T/C,[10],100 % of control
same,T/C,[11],96 % of control
same,T/C,[12],93 % of control
same,T/C,"dose: 100.0 mg/kg/injection, schedule: Q01DX009 (ip), vehicle: saline",98 % of control
same,T/C,"dose: 200.0 mg/kg/injection, schedule: Q01DX009 (ip), vehicle: saline",93 % of control
ClC1C(Cl)C(Cl)C(Cl)C(Cl)C1Cl (configuration not stated),T/C,"dose: 3.12 mg/kg/injection, schedule: Q01DX009 (ip), vehicle: saline with Tween-80",88 % of control and 90 % of control
same,T/C,[5],109 % of control and 91 % of control
same,T/C,[6],107 % of control
same,T/C,[13],100 % of control
same,T/C,[7],92 % of control and 97 % of control
same,T/C,[14],100 % of control
same,T/C,[8],93 % of control
same,T/C,[15],105 % of control
same,T/C,"dose: 200.0 mg/kg/injection, schedule: Q01DX009 (ip), vehicle: Klucel (hydroxypropylcellulose) (HPC)",111 % of control
same,T/C,[9],107 % of control
CC(C)(C)OC(=O)NC(Cc1c[nH]c2ccccc12)C(=O)ON1C(=O)CCC1=O (configuration not stated),T/C,[6],89 % of control
same,T/C,[7],100 % of control
same,T/C,[8],88 % of control
O=C(O)CCC(NC(=O)c1ccccc1)C(=O)O (configuration not stated),T/C,[8],93 % of control
same,T/C,[3],106 % of control
O=C(NC(Cc1c[nH]c2ccccc12)C(=O)O)OCC1c2ccccc2-c2ccccc21 (configuration not stated),T/C,[13],102 % of control
same,T/C,[14],92 % of control
same,T/C,[15],103 % of control
Brc1c(NC2=NCCN2)ccc2nccnc12,T/C,"dose: 1.56 mg/kg/injection, schedule: Q01DX009 (ip), vehicle: saline",100 % of control
same,T/C,[1],96 % of control
same,T/C,[2],102 % of control
same,T/C,[10],94 % of control and 106 % of control
same,T/C,[11],109 % of control and 102 % of control
same,T/C,[12],112 % of control and 104 % of control
CCCC(NC(=O)OCc1ccccc1)C(=O)O (configuration not stated),T/C,[3],92 % of control
same,T/C,[4],90 % of control
CC[C@]1(O)C[C@H]2CN(CCc3c([nH]c4ccccc34)[C@@](C(=O)OC)(c3cc4c(cc3OC)N(C=O)[C@H]3[C@@](O)(C(=O)OC)[C@H](OC(C)=O)[C@]5(CC)C=CCN6CC[C@]43[C@@H]65)C2)C1,T/C,"dose: 0.06 mg/kg/injection, schedule: Q01DX009 (ip), vehicle: saline",160 % of control
same,T/C,"dose: 0.12 mg/kg/injection, schedule: Q01DX009 (ip), vehicle: saline",159 % of control and 176 % of control
same,T/C,"dose: 0.25 mg/kg/injection, schedule: Q01DX009 (ip), vehicle: saline",171 % of control and 196 % of control
same,T/C,"dose: 0.5 mg/kg/injection, schedule: Q01DX009 (ip), vehicle: saline",190 % of control
same,T/C,"dose: 0.5 mg/kg/injection, schedule: Q01DX009 (ip), vehicle: water",108 % of control
same,T/C,"dose: 31.25 micrograms/kg/injection, schedule: Q01DX009 (ip), vehicle: water",154 % of control
same,T/C,"dose: 62.5 micrograms/kg/injection, schedule: Q01DX009 (ip), vehicle: water",186 % of control
same,T/C,"dose: 125.0 micrograms/kg/injection, schedule: Q01DX009 (ip), vehicle: water",193 % of control
same,T/C,"dose: 250.0 micrograms/kg/injection, schedule: Q01DX009 (ip), vehicle: water",227 % of control
